The test system of data set [1] is target kinases versus GSK3, PKC and PKA. Description: Kinase potency and selectivity profile under identical kinase assay conditions. It is filed as biochemical. An excerpt: Relative to the compounds disclosed in WO00/01699 and WO04/048384, compounds of the structural formula 1-4 have a higher degree of selectivity in favor of several antiproliferative kinases, as exemplified for the representative compound 1 and directly related compounds 7 of WO04/048384 and 8-9 of WO00/01699, containing the general scaffold of 10, respectively.

For data set [2] the following is noted: Propper et al.; cited from earlier work.
In another data set the target is ERK2 (Homo sapiens, UniProt P28482). Description: Kinase inhibition under standard conditions, ERK2. The class given is biochemical.
Another data set addresses CDK1 (Homo sapiens, UniProt P06493). Description: Kinase inhibition under standard conditions, CDK1. The class given is biochemical.
The next data set addresses GSK3. Nature of the data set: Kinase inhibition under standard conditions, GSK3. The class given is biochemical.
The next data set deals with PKC. Nature of the data set: Kinase inhibition under standard conditions, PKC. It is filed as biochemical.
Another data set deals with PKA. Nature of the data set: Kinase inhibition under standard conditions, PKA. The class given is biochemical.
Data set [3] concerns MDA-MB-231 breast cancer cell line. Description: Long-term growth inhibition, crystal violet staining. The class given is cell-based, human. Here is the method: The human estrogen receptor and EGF receptor negative MDA-MB-231 (HTB 26) breast cancer cell line (obtained from ATCC, Rockville, USA) were cultured in McCoy's 5A medium containing L-glutamine, 2.2 g/l NaHCO3 and 5% fetal calf serum. Cells were maintained in a water saturated atmosphere (95% air/5% carbon dioxide) at 37° C. in 75-cm^2 culture flasks, and were serially passaged following trypsinization using 0.05% trypsin/0.02% EDTA.
(§1) For proliferation assays tumor cell suspensions (100 μl/well) were seeded into 96-well flat bottomed microtitration plates at a density of ca. 15 cells/microscopic field (magnification 320×). After 2-3 days the culture medium was removed by suction and replaced by fresh medium (200 μl/well) containing varying concentrations of the compound of the formula 1 or vehicle (0.5% DMSO). Compound 1 was added as […] concentrated feed solutions. On every plate 16 wells served as controls and 16 wells were used per concentration of 1. After various times of incubation the cells were fixed with glutardialdehyde and stored in a refrigerator. At the end of the assay all plates were processed simultaneously (staining with 0.02% aqueous crystal violet solution (100 μl/well). Excess dye was removed by rinsing the trays with water for 20 min. The stain bound by the cells was redissolved in 70% ethanol (180 μl/well) while shaking the microplates for about 3 hours. Absorbance (proportional to cell mass) was measured at 578 nm using a BIOTEK 309 Autoreader. The results (mean values±standard deviation) were plotted as growth curves.

Data set [4] deals with HT29 colon cancer cell line. The description is as above. The class given is cell-based, human. The following applies: 10 nM. The procedure:
as §1
The HT29 human colon cancer cell line (obtained from ATCC, Rockville, USA) was cultured as above. Treatment with the compound of the formula 1 and analysis of growth inhibition was performed analogous to Example 3.

Data set [5] has as its system U373 glioblastoma cell line. Described as above. It is filed as cell-based, human. The following applies: U373, over a week. Here is the method:
as §1
The EGF-receptor independent U373 Human Glioblastoma cell line (obtained from ATCC, Rockville, USA) was cultured as above. Treatment with the compound of the formula 1 and analysis of growth inhibition was performed analogous to Example 3.

Data set [6] relates to breast cancer tumor cell lines. The following applies: large panel, Konecny et al.; cited from earlier work.

Data on nine molecules can be found in US8022056B2, “Compositions and methods for the treatment of cancer” (Tautatis, Inc, priority 2006, dated 2011).

Each structure is given as a SMILES string.

ERK2, sequence (P28482 whole entry, species assumed): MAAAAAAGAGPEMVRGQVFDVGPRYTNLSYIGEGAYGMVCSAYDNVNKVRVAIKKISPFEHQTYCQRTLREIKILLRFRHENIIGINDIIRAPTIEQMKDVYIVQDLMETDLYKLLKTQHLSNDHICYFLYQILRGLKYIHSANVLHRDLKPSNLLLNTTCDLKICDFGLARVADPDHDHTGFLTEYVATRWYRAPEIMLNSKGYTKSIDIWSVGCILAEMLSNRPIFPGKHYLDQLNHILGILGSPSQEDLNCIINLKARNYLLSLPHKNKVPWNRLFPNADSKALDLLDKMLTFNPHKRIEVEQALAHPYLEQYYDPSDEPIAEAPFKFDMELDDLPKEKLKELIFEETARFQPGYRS
CDK1, sequence (P06493 whole entry, species assumed): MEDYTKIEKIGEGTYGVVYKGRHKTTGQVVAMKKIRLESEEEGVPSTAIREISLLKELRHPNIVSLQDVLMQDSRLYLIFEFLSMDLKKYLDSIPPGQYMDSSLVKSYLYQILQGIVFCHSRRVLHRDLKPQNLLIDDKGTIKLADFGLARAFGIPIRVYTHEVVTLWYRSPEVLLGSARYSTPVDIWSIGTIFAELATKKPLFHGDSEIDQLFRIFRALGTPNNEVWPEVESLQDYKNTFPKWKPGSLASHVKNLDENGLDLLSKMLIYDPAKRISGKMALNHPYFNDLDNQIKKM
CDK1, sequence (P14635 whole entry partner, species assumed): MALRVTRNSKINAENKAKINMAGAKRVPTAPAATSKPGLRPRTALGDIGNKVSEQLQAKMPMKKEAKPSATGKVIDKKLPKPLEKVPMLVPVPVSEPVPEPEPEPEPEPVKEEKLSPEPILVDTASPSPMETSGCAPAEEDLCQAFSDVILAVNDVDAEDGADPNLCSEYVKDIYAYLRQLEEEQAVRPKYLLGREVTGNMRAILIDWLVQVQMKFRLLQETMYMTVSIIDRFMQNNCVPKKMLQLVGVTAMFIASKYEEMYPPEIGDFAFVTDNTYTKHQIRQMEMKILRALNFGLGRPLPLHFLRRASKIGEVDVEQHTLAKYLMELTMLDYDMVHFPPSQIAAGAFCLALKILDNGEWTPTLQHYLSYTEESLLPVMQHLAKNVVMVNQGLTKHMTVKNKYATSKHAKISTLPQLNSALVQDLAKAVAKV

For `C[C@]12O[C@H](C[C@]1(N)C(N)=O)n1c3ccccc3c3c4c(c5c6ccccc6n2c5c31)CNC4=O` [Compound 2], the “potency and selectivity profile compared with 1” value (from here on “potency and selectivity profile”) in [1] is “virtually identical potency and selectivity profile as 1”.

`CNC(=O)[C@@]1(N)C[C@H]2O[C@]1(C)n1c3ccccc3c3c4c(c5c6ccccc6n2c5c31)C(=O)NC4=O` [Compound 3]: the “potency and selectivity profile” value in [1] was “virtually identical potency and selectivity profile as 1”.

As to `CO[C@@H]1[C@H](N(C)C(=O)c2ccccc2)C[C@H]2O[C@]1(C)n1c3ccccc3c3c4c(c5c6ccccc6n2c5c31)C(=O)NC4` [PKC-412], the human serum binding entry in [2] is given as “extreme human serum binding”.

In general, IC50 refers to the concentration needed to halve the response being measured. For `COC(=O)[C@@]1(N)CC2OC1(C)n1c3ccccc3c3c4c(c5c6ccccc6n2c5c31)C(=O)NC4` (some centres unmarked) [Compound 6], the IC50 against ERK2 was 0.87 µM; at CDK1, 0.65 µM; against GSK3, greater than 10 µM; against PKC it was greater than 10 µM; against PKA, greater than 10 µM. Also, the “growth of MDA-MB-231 cells” value in data set [3] (10 nM, 1 week of exposure) was “virtually ineffective”. The “concentration required for a similar effect as 10 nM of 1” value is listed as “ten-fold higher concentration” in data set [3] (MDA-MB-231, 1 week) and “ten-fold higher concentration” in data set [5]. Also, the “proliferation of HT29 cells” value in data set [4] was “completely ineffective”.

For `C[C@]12O[C@H](C[C@]1(N)C(N)=O)n1c3ccccc3c3c4c(c5c6ccccc6n2c5c31)C(=O)NC4=O` [Compound 4], in [1], the “potency and selectivity profile” value was “virtually identical potency and selectivity profile as 1”.

Regarding `CNC(=O)[C@@]1(N)CC2CC1n1c3ccccc3c3c4c(c5c6ccccc6n2c5c31)C(=O)NC4` (some centres unmarked) [Compound 7], the IC50 is 0.6 µM at ERK2; 0.18 µM against CDK1; 0.35 µM at GSK3; 0.26 µM against PKC; 0.44 µM on PKA.

Take `CNC(=O)[C@@]1(O)CC2CC1n1c3ccccc3c3c4c(c5c6ccccc6n2c5c31)C(=O)NC4=O` (some centres unmarked) [Compound 8]: the IC50 on ERK2 came out at 0.12 µM; against CDK1, 0.063 µM; against GSK3 it was 0.037 µM; against PKC it was 0.12 µM; against PKA it was 0.078 µM.

On to `CNC(=O)[C@@]1(O)CC2CC1n1c3ccccc3c3c4c(c5c6ccccc6n2c5c31)C(=O)NC4` (some centres unmarked) [Compound 9], for which the IC50 on ERK2 came out at 0.48 µM; against CDK1, 0.11 µM; on GSK3, 0.4 µM; on PKC it was 0.21 µM; against PKA, 0.55 µM.

Take `CS(=O)(=O)CCNCc1ccc(-c2ccc3ncnc(Nc4ccc(OCc5cccc(F)c5)c(Cl)c4)c3c2)o1` [Tykerb]: the “share of breast cancer tumor cell lines with growth inhibitory activity” value in data set [6] is reported as “about 20%”.
